Test results from patent US20220251105A1, “METHODS OF TREATING A MK2-MEDIATED DISORDER” (Celgene CAR LLC, priority 2019, published 2022).
Where two headings read alike, the source gives them in different places.

Key:
CAIA in BALB/c mice = experiment: collagen antibody-induced arthritis (CAIA) model; type: in vivo, mouse
[1] = single intravenous dose pharmacokinetics in cynomolgus monkeys; type: in vivo; conditions: cynomolgus monkey, plasma; for Vd: read-out: Vdss
Protocol: (§1) In vitro and in vivo studies were conducted to characterize the absorption, PK, distribution, and metabolism of Compound 1. […] Additionally, plasma samples from single dose PK studies in mice and monkeys were evaluated for circulating metabolites.

[2] = single oral dose pharmacokinetics in Sprague Dawley rats; type: in vivo; conditions: rat
Protocol: as §1

[3] = single oral dose pharmacokinetics in cynomolgus monkeys; type: in vivo, cynomolgus monkey
Protocol: as §1

Monkey/Cynomolgus = experiment: single dose (fasted/non-fasted) and 14-day repeat-dose study in cynomolgus monkeys; type: in vivo
Protocol: In cynomolgus monkeys, a 7-day repeat dose toxicity study was conducted with doses up to 250 mg/kg/day. […] To aid in dose selection for a subsequent pivotal study, an additional study was conducted to determine the maximum feasible dose under optimal feeding conditions in cynomolgus monkeys. […] Dosing monkeys in the fasted state prior to dosing yielded more consistently higher exposures. Therefore, a dose of 375 mg/kg in 0.5% methyl cellulose (400 cps) and 0.1% Tween 80 administered to fasted monkeys was selected for the 14-day repeat-dose phase of the study, and was considered the maximum feasible dose.

[4] = system: proinflammatory cytokines (TNF-α) in LPS-stimulated whole blood; experiment: Phase 1 study, whole-blood ex vivo assay with LPS stimulation; type: cell-based, human
[5] = physical form (amorphous/crystalline) in dose formulation vehicle; type: physicochemical
From the text: Additionally, the vehicle used in the pivotal studies was changed from 0.5% methyl cellulose (400 cps) and 0.1% Tween 80 to distilled water.

[6] = 28- and 91-day toxicology studies in cynomolgus monkeys; conditions: cynomolgus monkey, in vivo, oral
[7] = cynomolgus, monkey, female, single IV 5 mg/kg
[8] = cynomolgus, monkey, male, single IV 5 mg/kg
[9] = Sprague Dawley, plasma, female, single oral 30 mg/kg
[10] = Sprague Dawley, plasma, male, single oral 30 mg/kg
[11] = cynomolgus monkey, plasma, monkey, female, single oral 50 mg/kg
[12] = cynomolgus monkey, plasma, monkey, female, single oral 150 mg/kg
[13] = cynomolgus monkey, plasma, monkey, female, single oral 375 mg/kg
[14] = cynomolgus monkey, plasma, monkey, male, single oral 50 mg/kg
[15] = cynomolgus monkey, plasma, monkey, male, single oral 150 mg/kg
[16] = cynomolgus monkey, plasma, monkey, male, single oral 375 mg/kg

CCOCc1cnc(Cl)nc1Oc1ccc2c(ccc3sc4c(c32)NC[C@@H](C)NC4=O)n1 [Compound 1]
% Inhibition, paw swelling (CAIA in BALB/c mice; 3 mg/kg, last day of dosing): 89.7% paw
Minimally Efficacious Dose (CAIA in BALB/c mice; endpoint paw swelling): 3 mg/kg
half-life ([1]; both sexes, iv, 5 mg/kg, monkeys, read-out: terminal half-life): ≤ 1 h
AUC [1, 7]: 2200 ng·h/mL
AUC(0-inf) [1, 7]: 2210 ng·h/mL
clearance [1, 7]: 38.3 mL/min/kg
Vd [1, 7]: 1.93 L/kg
half-life ([1]; cynomolgus, monkey, female, single IV 5 mg/kg, read-out: t1/2,z (converted)): 0.98 h
AUC [1, 8]: 1920 ng·h/mL
AUC(0-inf) [1, 8]: 1920 ng·h/mL
clearance [1, 8]: 43.5 mL/min/kg
Vd [1, 8]: 1.81 L/kg
half-life ([1]; cynomolgus, monkey, male, single IV 5 mg/kg, read-out: t1/2,z (converted)): 0.95 h
AUC [2, 9]: 5940 ng·h/mL
AUC(0-inf) [2, 9]: 6610 ng·h/mL
Cmax [2, 9]: 4960 ng/mL
Tmax ([2]; Sprague Dawley, plasma, female, single oral 30 mg/kg, median, read-out: tmax): 0.5 h
AUC [2, 10]: 1190 ng·h/mL
AUC(0-inf) [2, 10]: 1290 ng·h/mL
Cmax [2, 10]: 1180 ng/mL
Tmax ([2]; Sprague Dawley, plasma, male, single oral 30 mg/kg, median, read-out: tmax): 0.25 h
Tmax ([2]; both sexes, Sprague Dawley, plasma, 30 mg/kg, rats, oral dosing, read-out: time to maximum plasma concentration (tmax)): 0.25 to 1 h
bioavailability ([2]; both sexes, Sprague Dawley, plasma, po, rats, doses in the range 15 to 375 mg/kg): 8 to 28%
F ([2]; female, single oral 30 mg/kg): 28%
F ([2]; male, single oral 30 mg/kg): 11%
bioavailability ([3]; both sexes, cynomolgus monkey, plasma, po, monkeys, doses in the range 15 to 375 mg/kg): 8 to 28%
Tmax ([3]; both sexes, cynomolgus monkey, plasma, monkeys, oral dosing, read-out: time to maximum plasma concentration (tmax)): 1 to 6 h
AUC [3, 11]: 3810 ng·h/mL
AUC(0-inf) [3, 11]: 3840 ng·h/mL
Cmax [3, 11]: 1040 ng/mL
Tmax ([3]; cynomolgus monkey, plasma, monkey, female, single oral 50 mg/kg, median, read-out: tmax): 2 h
AUC [3, 12]: 4750 ng·h/mL
AUC(0-inf) [3, 12]: 4820 ng·h/mL
Cmax [3, 12]: 1200 ng/mL
Tmax ([3]; cynomolgus monkey, plasma, monkey, female, single oral 150 mg/kg, median, read-out: tmax): 2 h
AUC [3, 13]: 22600 ng·h/mL
AUC(0-inf) [3, 13]: 22700 ng·h/mL
Cmax [3, 13]: 2530 ng/mL
Tmax ([3]; cynomolgus monkey, plasma, monkey, female, single oral 375 mg/kg, median, read-out: tmax): 6 h
AUC [3, 14]: 3680 ng·h/mL
AUC(0-inf) [3, 14]: 3710 ng·h/mL
Cmax [3, 14]: 865 ng/mL
Tmax ([3]; cynomolgus monkey, plasma, monkey, male, single oral 50 mg/kg, median, read-out: tmax): 2 h
AUC [3, 15]: 8480 ng·h/mL
AUC(0-inf) [3, 15]: 8590 ng·h/mL
Cmax [3, 15]: 1990 ng/mL
Tmax ([3]; cynomolgus monkey, plasma, monkey, male, single oral 150 mg/kg, median, read-out: tmax): 1 h
AUC [3, 16]: 13900 ng·h/mL
AUC(0-inf) [3, 16]: 14000 ng·h/mL
Cmax [3, 16]: 1890 ng/mL
F ([3]; monkey, female, single oral 50 mg/kg): 19%
F ([3]; monkey, female, single oral 150 mg/kg): 8%
F ([3]; monkey, female, single oral 375 mg/kg): 15%
F ([3]; monkey, male, single oral 50 mg/kg): 18%
F ([3]; monkey, male, single oral 150 mg/kg): 14%
F ([3]; monkey, male, single oral 375 mg/kg): 9%
Findings, single dose phase (Monkey/Cynomolgus; 375 and 500 mg/kg, fasted and non-fasted): No compound-related findings
Findings, 14-day phase (Monkey/Cynomolgus; fasted, 375 mg/kg/day): No compound-related findings
TNF inhibition in the ex vivo assay ([4]; Part 1, single oral doses 10 mg to 400 mg, by 4 hours, LPS 24 hours): dose dependent increase
TNF-α in the ex vivo assay ([4]; Part 2, 14 days of dosing, doses greater than 10 mg, maximal inhibition at 150 mg): sustained reductions in TNF-α
physical form after dose formulation preparation ([5]; Tween 80 present in the vehicle): changed from an amorphous to a crystalline form, beginning within the first hour
time remaining in the amorphous form ([5]; prepared in distilled water): at least 24 hours
NOAEL [6]: 375 mg/kg/day
